Measured values as given in patent US20040091949A1, “Method of screening drug acting on cell wall” (priority 2000, published 2004).

How the values were obtained:
[1] = test system: AY-2 strain (wall-type arming yeast); test: GFP releasing effect of available antifungal agents, wall-type arming yeast; type: cell-based, S. cerevisiae; details: RPMIB medium protected for osmotic pressure, supernatant fluorescence, difference from control with no agent
Experimental: (§1) The cultured yeast cells in the logarithmic growth phase (AY-2 strain or AY-12 strain) were collected, and various agents were allowed to act on the yeast cells. Fluorescence intensity of the culture supernatant was measured by using Cytofluor 2300 Fluorometer (Millipore, excitation=480 nm, emission=530 nm). The fluorescence intensity under treatment with each of various agents was shown in terms of a difference in fluorescence intensity compared with that of a control in which no agent was added.
(§2) In order to ascertain whether or not the method of the present invention can be utilized for a screening of agents with a targeting site other than Kre6p, the GFP releasing effects in the AY-2 strain (wall-type arming yeast) and the AY-12 strain (membrane-type arming yeast) were compared under actions of available antifungal agents. The AY-2 strain cells and the AY-12 strain cells each cultured in a test tube were floated on a medium (RPMIB) protected for osmotic pressure, and each of the agents was allowed to act on the cells. After the culture, the fluorescence intensity of the supernatant was measured, and a difference from that of a control with no addition of the agent was calculated.

[2] = test system: AY-12 strain (membrane-type arming yeast); test: GFP releasing effect of available antifungal agents, membrane-type arming yeast; type: cell-based, S. cerevisiae; details: RPMIB medium protected for osmotic pressure, supernatant fluorescence, difference from control with no agent
Experimental: as §1, §2

Row | Compound | GFP releasing effect [1] | GFP releasing effect [2]
1 | CC[C@@H](C(=O)[C@@H](C)[C@@H](O)[C@H](C)[C@@H]1O[C@@H]([C@@H](CC)C(=O)O)CC[C@@H]1C)[C@H]1O[C@]2(C=C[C@@H](O)[C@]3(CC[C@@](C)([C@H]4CC[C@](O)(CC)[C@H](C)O4)O3)O2)[C@H](C)C[C@@H]1C [Salinomycin] | Slight releasing effect | Slight releasing effect
2 | C[C@@H]1[C@H](O)[C@@H](C)/C=C/C=C/C=C/C=C/C=C/C=C/C=C/[C@H](O[C@@H]2O[C@H](C)[C@@H](O)[C@H](N)[C@@H]2O)C[C@@H]2O[C@](O)(C[C@@H](O)C[C@@H](O)[C@H](O)CC[C@@H](O)C[C@@H](O)CC(=O)O[C@H]1C)C[C@H](O)[C@H]2C(=O)O [Amphotericin B] | Slight releasing effect | Slight releasing effect
3 | Aculeacin A | Marked GFP releasing effect | almost no releasing effect
4 | Tunicamycin | Marked GFP releasing effect | almost no releasing effect
5 | OC(Cn1cncn1)(Cn1cncn1)c1ccc(F)cc1F [Fluconazole] | Slight releasing effect | Slight releasing effect
